# Laboratory results: patent US11986529B2, “Pharmaceutical compositions and related methods of delivery” (priority 2008, dated 2024)
# Where two headings read alike, the source gives them in different places.
# Legend:
# [1] = rat, in vivo
# Description: (§1) Rats are allowed to recover for 4 days before the study and are deprived of food for 18 hours before the start of the study.
# (§2) Levels of plasma dextran following administration of dextran in formulation or in saline were compared to the levels of plasma dextran after intravenous administration. Exposure values, AUC (0-90), were determined for jejunal and intravenous administration and the absolute bioavailability (aBA) was calculated according to the following equation: aBA=(jejunal AUC(0-90))/(iv AUC(0-90))*(iv dose/jejunal dose). Data are presented as Mean±SD (n≥5 rats per group).
# (§3) The levels of dextran absorption from rat jejunum after administration of dextran in formulation were compared to the levels of dextran absorbed after intravenous administration. Exposure values, AUC (0-90), were determined for jejunal and intravenous administration and the absolute bioavailability (aBA) determined according to the following equation: aBA=(jejunal AUC(0-90))/(iv AUC(0-90))*(iv dose/jejunal dose). Data are presented as Mean±SD (n≥5 rats per group).
# (§4) The levels of dextran absorption from rat jejunum after administration of dextran in formulation were compared to the levels of dextran absorbed after intravenous administration. Exposure values, AUC (0-90), were determined for jejunal and intravenous administration and the absolute Bioavailability (aBA) was determined according to the following equation: aBA=(jejunal AUC(0-90))/(iv AUC(0-90))*(iv dose/jejunal dose). Data are presented as Mean±SD (n≥5 rats per group).
# [2] = Capsule administration to small intestine of non-anesthetized pigs (Nipple Valve gastric bypass); conditions: pig, in vivo; read-out: level of bioavailability in pigs, extrapolated from rat results
# Description: In order to test the activity of the formulations of the invention when administrated in capsules, an animal model allowing capsule administration to pigs (domestic swine) was established. In order to bypass the stomach and allow direct administration of capsules to the small intestine of the pig, a well established model in dogs (“Nipple Valve model”; Wilsson-Rahmberg & O. Jonsson, Laboratory Animals (1997), 31, 231-240) was adapted to the commercial pig.
# The two octreotide formulations shown below in Table 37 were prepared. The octreotide (x) formulation was prepared essentially as described above for the basic formulation wherein the hydrophilic fraction has been simplified to omit MgCl2 and MC400. […] The capsules were not enteric-coated i.e. they were uncoated.
# The formulations described above in Table 37 were administered directly to the small intestine of the non-anesthetized pigs via the gastric bypass described above, and plasma octreotide levels were measured post-administration. Exposure values, AUC were determined for the formulations. The % BA was calculated compared to the exposure to octreotide after subcutaneous administration.
# [3] = Intra-jejunal administration to non-anesthetized cannulated rats: plasma cargo levels, AUC, bioavailability; conditions: rat
# Description: as §1, §2, §3, §4
# [4] = rat, in vivo; remark: listed apart in the source
# Description: Rats were anesthetized and were administered 100 μL of bulk drug formulation containing an insulin dose of 328 μg/rat (9 IU/rat). Blood samples were collected at 0, 3, 6, 10, 15, 25, 30, 40, 60 and 90 minutes post administration and serum was prepared for determination of human insulin by an immunoassay kit with no cross reactivity between rat and human insulin.
# Rats were anesthetized and administered 100 μL of test article (insulin in formulation or insulin in PBS) containing an insulin dose of 328 μg/rat (9 IU/rat). Blood samples were collected at 0, 3, 6, 10, 15, 25, 30, 40, 60 and 90 minutes post administration. Glucose level was immediately determined with a glucometer and serum was prepared for determination of human insulin by an immunoassay kit with no cross reactivity between rat and human insulin.
# Blood samples were collected at 0, 3, 6, 10, 15, 25, 30, 40, 60 and 90 minutes post rectal administration and at 0, 15, 30, 45, 60, 90 min, 2, 3, and 4 hours post SC administration. Glucose was immediately determined with a glucometer and insulin by an immunoassay kit. Glucose levels are presented as the percentage form basal levels measured before administration (time 0).
# The levels of insulin absorption from rat colon after insulin in formulation administration were compared to the levels of insulin absorbed after SC administration. […]
# [5] = rat, in vivo; remark: listed apart in the source
# Description: Enteric-coated capsules for rats are not available and therefore stomach bypass enabling direct intra-jejunal administration is needed.
# A specialized rat model in which three different cannulas are surgically implanted in anesthetized rats was developed: 1. Jejunal cannula—stomach bypass, enables insulin formulation administration, 2. Portal vein cannula—blood sampling prior to the liver, determine insulin that cross the GI wall into the blood, and 3. Jugular vein cannula—to determine the systemic levels of insulin.
# Rats (8 rats per group) were anesthetized and their jejunum exposed by abdominal surgery. The jejunum containing intestinal loop was placed on gauze and kept moist and fully intact throughout the entire study. A temporary cannula was inserted into the jejunum and formulated insulin was administered. Blood was collected from both portal and jugular veins at the same time points, with approximately 4 time points per rat. The MEAN±SD value of each time point was used to create a plasma concentration vs. time curve. AUC was determined and rBA was calculated.
# [6] = test system: blood glucose; assay: Blood glucose after rectal administration of insulin to rats; assay type: in vivo; conditions: rat, insulin 328 μg/rat
# Description: The data of FIG. 3 is presented as MEAN±SD, n=5.
compound,measurement,setting,value
"CCNC(=O)[C@@H]1CCCN1C(=O)[C@H](CCCNC(=N)N)NC(=O)[C@H](CC(C)C)NC(=O)[C@@H](CC(C)C)NC(=O)[C@H](Cc1ccc(O)cc1)NC(=O)[C@H](CO)NC(=O)[C@H](Cc1c[nH]c2ccccc12)NC(=O)[C@H](Cc1c[nH]cn1)NC(=O)[C@@H]1CCC(=O)N1 [leuprolide in PBS, leuprolide]",bioavailability / penetration to the bloodstream,[1],negligible penetration to the bloodstream
C[C@@H](O)[C@@H]1NC(=O)[C@H](CCCCN)NC(=O)[C@@H](Cc2c[nH]c3ccccc23)NC(=O)[C@H](Cc2ccccc2)NC(=O)[C@@H](NC(=O)[C@H](N)Cc2ccccc2)CSSC[C@@H](C(=O)N[C@H](CO)[C@@H](C)O)NC1=O [octreotide],bioavailability,[2],~0.1%
"CC[C@H](C)[C@H](NC(=O)[C@H](CCC(=O)O)NC(=O)[C@H](CO)NC(=O)[C@@H](NC(=O)[C@@H](N)CO)C(C)C)C(=O)N[C@@H](CCC(N)=O)C(=O)N[C@@H](CC(C)C)C(=O)N[C@@H](CCSC)C(=O)N[C@@H](Cc1cnc[nH]1)C(=O)N[C@@H](CC(N)=O)C(=O)N[C@@H](CC(C)C)C(=O)NCC(=O)N[C@@H](CCCCN)C(=O)N[C@@H](Cc1cnc[nH]1)C(=O)N[C@@H](CC(C)C)C(=O)N[C@@H](CC(N)=O)C(=O)N[C@@H](CO)C(=O)N[C@@H](CCSC)C(=O)N[C@@H](CCC(=O)O)C(=O)N[C@@H](CCCN=C(N)N)C(=O)N[C@H](C(=O)N[C@@H](CCC(=O)O)C(=O)N[C@@H](Cc1c[nH]c2ccccc12)C(=O)N[C@@H](CC(C)C)C(=O)N[C@@H](CCCN=C(N)N)C(=O)N[C@@H](CCCCN)C(=O)N[C@@H](CCCCN)C(=O)N[C@@H](CC(C)C)C(=O)N[C@@H](CCC(N)=O)C(=O)N[C@@H](CC(=O)O)C(=O)N[C@H](C(=O)N[C@@H](Cc1cnc[nH]1)C(=O)N[C@@H](CC(N)=O)C(=O)N[C@@H](Cc1ccccc1)C(=O)O)C(C)C)C(C)C [teriparatide in saline, teriparatide]",bioavailability / penetration to the bloodstream,[1],no penetration to the bloodstream
"CN[C@H](CC(C)C)C(=O)N[C@H]1C(=O)N[C@@H](CC(N)=O)C(=O)N[C@H]2C(=O)N[C@H]3C(=O)N[C@H](C(=O)N[C@H](C(=O)O)c4cc(O)cc(O)c4-c4cc3ccc4O)[C@H](O)c3ccc(c(Cl)c3)Oc3cc2cc(c3O[C@@H]2O[C@H](CO)[C@@H](O)[C@H](O)[C@H]2O[C@H]2C[C@](C)(N)[C@H](O)[C@H](C)O2)Oc2ccc(cc2Cl)[C@H]1O [vancomycin in saline solution, vancomycin]",bioavailability / penetration to the bloodstream,[3],no BA was detected
"hGH in PBS: human growth hormone in PBS, control",penetration to the bloodstream,[4],no penetration to the bloodstream
insulin control: unformulated insulin control given intra-jejunally,insulin absorbance,[5],minimal insulin absorbance
insulin in PBS: human insulin solubilized in PBS,glucose reduction,[6],only a very slight glucose reduction
